Measured values published in article PMC7291858, “An Enhanced Variant Designed From DLP4 Cationic Peptide Against Staphylococcus aureus CVCC 546” (Frontiers in Microbiology, 2020).
Peptide text beside a SMILES is read from it.

Tested on: S. aureus ATCC 43300
Type: cell-based, Staphylococcus aureus
Conditions: microtiter, serial 2-fold dilutions, 37°C, 16∼20 h, triplicate; – = no activity
Description: The minimal inhibitory concentration (MIC) was evaluated by a microtiter plate assay ([Wiegand et al., 2008]). Serial 2-fold dilutions of test peptides were placed into a 96-well plate containing identical bacterial inoculum and incubated at 37°C for 16∼20 h. Vancomycin was used as antibiotic control. The MIC value was defined as the lowest peptide concentration where no visible growth occurred. All tests were made in triplicate.

SMILES	A1 (MIC against S. aureus ATCC 43300) [µg/mL]
CC[C@H](C)[C@@H]1NC(=O)[C@@H]2CSSC[C@@H](C(=O)N[C@@H](CCCNC(=N)N)C(=O)N[C@@H](CCCCN)C(=O)O)NC(=O)[C@H](CC(N)=O)NC(=O)[C@@H]3CSSC[C@H](NC(=O)[C@H](C)NC(=O)[C@H](C)NC(=O)[C@H](Cc4c[nH]cn4)NC(=O)CNC(=O)[C@H](C(C)C)NC(=O)[C@H](CCCCN)NC(=O)[C@H](Cc4ccccc4)NC(=O)[C@@H]4CCCN4C(=O)[C@H](CO)NC(=O)[C@H]([C@@H](C)CC)NC(=O)[C@H](CC(C)C)NC(=O)[C@H](CC(=O)O)NC(=O)[C@@H](NC(=O)[C@@H](NC(=O)[C@H](C)N)[C@@H](C)O)CSSC[C@H](NC(=O)[C@H](Cc4c[nH]c5ccccc45)NC(=O)CNC(=O)CNC(=O)[C@H](CCCNC(=N)N)NC(=O)[C@H](CCCCN)NC(=O)CNC(=O)[C@H](CCCNC(=N)N)NC(=O)[C@H](C)NC1=O)C(=O)N[C@@H](CC(=O)O)C(=O)N[C@@H](CCCCN)C(=O)N[C@@H](CCCNC(=N)N)C(=O)N[C@@H](C)C(=O)N[C@@H](C(C)C)C(=O)N3)C(=O)N[C@@H](C)C(=O)N[C@@H](C)C(=O)N[C@@H](Cc1c[nH]cn1)C(=O)N2 [ID5] (HELM PEPTIDE1{A.T.C.D.L.I.S.P.F.K.V.G.H.A.A.C.A.A.H.C.I.A.R.G.K.R.G.G.W.C.D.K.R.A.V.C.N.C.R.K}$PEPTIDE1,PEPTIDE1,3:R3-30:R3|PEPTIDE1,PEPTIDE1,16:R3-36:R3|PEPTIDE1,PEPTIDE1,20:R3-38:R3$$$V2.0; N-terminus and C-terminus assumed; bridges inferred)	16
CC[C@H](C)[C@@H]1NC(=O)[C@@H]2CSSC[C@@H](C(=O)N[C@@H](CCCNC(=N)N)C(=O)N[C@@H](CCCCN)C(=O)O)NC(=O)[C@H](CC(N)=O)NC(=O)[C@@H]3CSSC[C@H](NC(=O)[C@H](C)NC(=O)[C@H](C)NC(=O)[C@H](Cc4c[nH]cn4)NC(=O)[C@H](CCCCN)NC(=O)[C@H](C(C)C)NC(=O)[C@H](CCCCN)NC(=O)[C@H](Cc4ccccc4)NC(=O)[C@@H]4CCCN4C(=O)[C@H](CO)NC(=O)[C@H](CC(C)C)NC(=O)[C@H](CC(C)C)NC(=O)[C@H](CC(=O)O)NC(=O)[C@@H](NC(=O)[C@@H](NC(=O)[C@H](C)N)[C@@H](C)O)CSSC[C@H](NC(=O)[C@H](Cc4c[nH]c5ccccc45)NC(=O)CNC(=O)CNC(=O)[C@H](CCCNC(=N)N)NC(=O)[C@H](CCCCN)NC(=O)CNC(=O)[C@H](CCCNC(=N)N)NC(=O)[C@H](C)NC1=O)C(=O)N[C@@H](CC(=O)O)C(=O)N[C@@H](CCCCN)C(=O)N[C@@H](CCCNC(=N)N)C(=O)N[C@@H](C)C(=O)N[C@@H](C(C)C)C(=O)N3)C(=O)N[C@@H](C)C(=O)N[C@@H](C)C(=O)N[C@@H](Cc1c[nH]cn1)C(=O)N2 [ID9] (HELM PEPTIDE1{A.T.C.D.L.L.S.P.F.K.V.K.H.A.A.C.A.A.H.C.I.A.R.G.K.R.G.G.W.C.D.K.R.A.V.C.N.C.R.K}$PEPTIDE1,PEPTIDE1,3:R3-30:R3|PEPTIDE1,PEPTIDE1,16:R3-36:R3|PEPTIDE1,PEPTIDE1,20:R3-38:R3$$$V2.0; N-terminus and C-terminus assumed; bridges inferred)	16
CC[C@H](C)[C@@H]1NC(=O)[C@@H]2CSSC[C@@H](C(=O)N[C@@H](CCCNC(=N)N)C(=O)N[C@@H](CCCCN)C(=O)O)NC(=O)[C@H](CC(N)=O)NC(=O)[C@@H]3CSSC[C@H](NC(=O)[C@H](C)NC(=O)[C@H](C)NC(=O)[C@H](Cc4c[nH]cn4)NC(=O)CNC(=O)[C@H](C(C)C)NC(=O)[C@H](CCCCN)NC(=O)[C@H](Cc4ccccc4)NC(=O)[C@H](CCCCN)NC(=O)[C@H](CO)NC(=O)[C@H](CC(C)C)NC(=O)[C@H](CC(C)C)NC(=O)[C@H](CC(=O)O)NC(=O)[C@@H](NC(=O)[C@@H](NC(=O)[C@H](C)N)[C@@H](C)O)CSSC[C@H](NC(=O)[C@H](Cc4c[nH]c5ccccc45)NC(=O)CNC(=O)CNC(=O)[C@H](CCCNC(=N)N)NC(=O)[C@H](CCCCN)NC(=O)CNC(=O)[C@H](CCCNC(=N)N)NC(=O)[C@H](C)NC1=O)C(=O)N[C@@H](CC(=O)O)C(=O)N[C@@H](CCCCN)C(=O)N[C@@H](CCCNC(=N)N)C(=O)N[C@@H](C)C(=O)N[C@@H](C(C)C)C(=O)N3)C(=O)N[C@@H](C)C(=O)N[C@@H](C)C(=O)N[C@@H](Cc1c[nH]cn1)C(=O)N2 [ID8] (HELM PEPTIDE1{A.T.C.D.L.L.S.K.F.K.V.G.H.A.A.C.A.A.H.C.I.A.R.G.K.R.G.G.W.C.D.K.R.A.V.C.N.C.R.K}$PEPTIDE1,PEPTIDE1,3:R3-30:R3|PEPTIDE1,PEPTIDE1,16:R3-36:R3|PEPTIDE1,PEPTIDE1,20:R3-38:R3$$$V2.0; N-terminus and C-terminus assumed; bridges inferred)	32
CC[C@H](C)[C@@H]1NC(=O)[C@@H]2CSSC[C@@H](C(=O)N[C@@H](CCCNC(=N)N)C(=O)N[C@@H](CCCCN)C(=O)O)NC(=O)[C@H](CC(N)=O)NC(=O)[C@@H]3CSSC[C@H](NC(=O)[C@H](C)NC(=O)[C@H](C)NC(=O)[C@H](Cc4c[nH]cn4)NC(=O)CNC(=O)[C@H](C(C)C)NC(=O)[C@H](CCCCN)NC(=O)[C@H](Cc4ccccc4)NC(=O)[C@@H]4CCCN4C(=O)[C@H](CO)NC(=O)[C@H](CC(C)C)NC(=O)[C@H](CC(C)C)NC(=O)[C@H](CC(=O)O)NC(=O)[C@@H](NC(=O)[C@@H](NC(=O)[C@H](C)N)[C@@H](C)O)CSSC[C@H](NC(=O)[C@H](Cc4c[nH]c5ccccc45)NC(=O)CNC(=O)CNC(=O)[C@H](CCCNC(=N)N)NC(=O)[C@H](CCCCN)NC(=O)CNC(=O)[C@H](CCCNC(=N)N)NC(=O)[C@H](C)NC1=O)C(=O)N[C@@H](CC(N)=O)C(=O)N[C@@H](CCCCN)C(=O)N[C@@H](CCCNC(=N)N)C(=O)N[C@@H](C)C(=O)N[C@@H](C(C)C)C(=O)N3)C(=O)N[C@@H](C)C(=O)N[C@@H](C)C(=O)N[C@@H](Cc1c[nH]cn1)C(=O)N2 [ID10] (HELM PEPTIDE1{A.T.C.D.L.L.S.P.F.K.V.G.H.A.A.C.A.A.H.C.I.A.R.G.K.R.G.G.W.C.N.K.R.A.V.C.N.C.R.K}$PEPTIDE1,PEPTIDE1,3:R3-30:R3|PEPTIDE1,PEPTIDE1,16:R3-36:R3|PEPTIDE1,PEPTIDE1,20:R3-38:R3$$$V2.0; N-terminus and C-terminus assumed; bridges inferred)	16
CC[C@H](C)[C@@H]1NC(=O)[C@@H]2CSSC[C@@H](C(=O)N[C@@H](CCCNC(=N)N)C(=O)N[C@@H](CCCCN)C(=O)O)NC(=O)[C@H](CC(N)=O)NC(=O)[C@@H]3CSSC[C@H](NC(=O)[C@H](C)NC(=O)[C@H](C)NC(=O)[C@H](Cc4c[nH]cn4)NC(=O)CNC(=O)[C@H](C(C)C)NC(=O)[C@H](CCCCN)NC(=O)[C@H](Cc4ccccc4)NC(=O)[C@@H]4CCCN4C(=O)[C@H](CO)NC(=O)[C@H](CC(C)C)NC(=O)[C@H]([C@@H](C)CC)NC(=O)[C@H](CC(=O)O)NC(=O)[C@@H](NC(=O)[C@@H](NC(=O)[C@H](C)N)[C@@H](C)O)CSSC[C@H](NC(=O)[C@H](Cc4c[nH]c5ccccc45)NC(=O)CNC(=O)CNC(=O)[C@H](CCCNC(=N)N)NC(=O)[C@H](CCCCN)NC(=O)CNC(=O)[C@H](CCCNC(=N)N)NC(=O)[C@H](C)NC1=O)C(=O)N[C@@H](CC(=O)O)C(=O)N[C@@H](CCCCN)C(=O)N[C@@H](CCCNC(=N)N)C(=O)N[C@@H](C)C(=O)N[C@@H](C(C)C)C(=O)N3)C(=O)N[C@@H](C)C(=O)N[C@@H](C)C(=O)N[C@@H](Cc1c[nH]cn1)C(=O)N2 [ID4] (HELM PEPTIDE1{A.T.C.D.I.L.S.P.F.K.V.G.H.A.A.C.A.A.H.C.I.A.R.G.K.R.G.G.W.C.D.K.R.A.V.C.N.C.R.K}$PEPTIDE1,PEPTIDE1,3:R3-30:R3|PEPTIDE1,PEPTIDE1,16:R3-36:R3|PEPTIDE1,PEPTIDE1,20:R3-38:R3$$$V2.0; N-terminus and C-terminus assumed; bridges inferred)	32
CC[C@H](C)[C@@H]1NC(=O)[C@@H]2CSSC[C@@H](C(=O)N[C@@H](CCCNC(=N)N)C(=O)N[C@@H](CCCCN)C(=O)O)NC(=O)[C@H](CC(N)=O)NC(=O)[C@@H]3CSSC[C@H](NC(=O)[C@H](C)NC(=O)[C@H](C)NC(=O)[C@H](Cc4c[nH]cn4)NC(=O)CNC(=O)[C@H](C(C)C)NC(=O)[C@H](CCCCN)NC(=O)[C@H](Cc4ccccc4)NC(=O)[C@@H]4CCCN4C(=O)[C@H](CO)NC(=O)[C@H](CC(C)C)NC(=O)[C@H](CC(C)C)NC(=O)[C@H](CC(=O)O)NC(=O)[C@@H](NC(=O)[C@@H](NC(=O)[C@H](C)N)[C@@H](C)O)CSSC[C@H](NC(=O)[C@H](Cc4c[nH]c5ccccc45)NC(=O)CNC(=O)CNC(=O)[C@H](CCCNC(=N)N)NC(=O)[C@H](CC(N)=O)NC(=O)CNC(=O)[C@H](CCCNC(=N)N)NC(=O)[C@H](C)NC1=O)C(=O)N[C@@H](CC(=O)O)C(=O)NCC(=O)N[C@@H](CCCNC(=N)N)C(=O)N[C@@H](C)C(=O)N[C@@H](C(C)C)C(=O)N3)C(=O)N[C@@H](C)C(=O)N[C@@H](C)C(=O)N[C@@H](Cc1c[nH]cn1)C(=O)N2 [ID18] (HELM PEPTIDE1{A.T.C.D.L.L.S.P.F.K.V.G.H.A.A.C.A.A.H.C.I.A.R.G.N.R.G.G.W.C.D.G.R.A.V.C.N.C.R.K}$PEPTIDE1,PEPTIDE1,3:R3-30:R3|PEPTIDE1,PEPTIDE1,16:R3-36:R3|PEPTIDE1,PEPTIDE1,20:R3-38:R3$$$V2.0; N-terminus and C-terminus assumed; bridges inferred)	16
